In article PMC8537988, “Re-Use of Caco-2 Monolayers in Permeability Assays—Validation Regarding Cell Monolayer Integrity” (Pharmaceutics, 2021):

System: Caco-2 monolayers
Experiment: Apical to basolateral permeability of LY through Caco-2 monolayers (Transwell, 12-well)
Type: in vitro ADME, human
Conditions: for LY Papp, µ best fit of Normal distribution to Papp / LY Papp, µ directly from Papp: single sampling at 60 min
Method: Caco-2 cells culture and monolayers preparation was as described in the reference protocol. Cells were maintained in T75 cm^2 flasks in culture medium (DMEM supplemented with 1% (v/v) NEAA, 10% (v/v) heat-inactivated FBS), in a humidified atmosphere of 5% CO2 at 37 °C. As recommended in the reference protocol, the permeability assays were performed using cells in passages 95–105. The cells were thawed on passage 89 and sub-cultured twice a week at or shortly before 90% confluency by a 1:8 split. To avoid seeding aggregated cells and the formation of multilayers in Transwell™ inserts, the cell clusters were disaggregated into single cells by passing them 3 times through a syringe needle of 23 gauges (BD Falcon) before cell counting. Caco-2 cells were seeded at 2.6 × 10^5 cells/cm^2 on 12-well polycarbonate filter inserts. The culture medium (with 1% (v/v) Pen/Strep) was replaced by fresh medium 6 h following seeding and then every 2–3 days thereafter until transport experiments.
The reference protocol was followed in the permeability assays, with slight modifications as required by the new experimental approach. Manipulation of the cell monolayers was conducted under sterile conditions (in the laminar flow hood or incubator). At the day of the experiments, the culture medium was removed and HBSS (further supplemented with 25 mM HEPES, 0.35 g/L sodium bicarbonate, pH 7.4) pre-warmed to 37 °C was added to the donor (0.5 mL) and receiver (1.5 mL) sides to wash the cell monolayers. The plate containing the inserts was placed (lid-covered) in an incubator without CO2 at 37 °C with an orbital shaker (IKA-Schüttler MTS4, JMGS, Lisboa, Portugal) at 50 rpm for 8 min. The washing step was repeated with new HBSS. The TEER was measured in HBSS at 37 °C using a Millicell® ERS-2 voltmeter equipped with a chopstick electrode pair (Merck, Lisboa, Portugal). A filter insert without cells was included in each set of experiments for correction of the TEER value for the background resistance. The resistance values (Ω cm^2) of the cell monolayers were obtained by subtracting the TEER value from blank inserts and multiplying by the surface area of the insert. All cell monolayers presented TEER values above 200 Ω cm^2. At least one insert of the set was fixed and stained for confocal microscopy analysis (see next section). The remaining ones were used to perform the apical to basolateral permeability assays with the paracellular marker LY. For this, the donor HBSS washing solution was decanted, and the inserts were placed into empty wells of a fresh 12-well plate. The permeability assay was initiated with the addition of 450 µL of the LY solution (20 µM in HBSS at 37 °C) simultaneously to the donor compartments of 3 to 4 insert, from which a 50 µL aliquot was immediately collected and stored for the calculation of the solute concentration in the donor compartment at t = 0. The inserts containing the LY solution were subsequently positioned in a pre-prepared 12-well plate containing HBSS (1.2 mL per well), and the lid-covered plate was placed on the incubator (without CO2, 50 rpm and 37 °C). At the defined sampling times, the plate was positioned into the laminar flow hood and the inserts were transferred into new wells containing fresh HBSS. The high fluorescence quantum yield of LY allows its detection by […], even for the very small amount expected to permeate during short permeation intervals. In this work we used 10, 20, 30, and 60 min or 60 min only as sampling times. At the end of the assay, inserts were transferred to empty wells and 50 µL was taken from the donor compartment for the calculation of the solute mass balance. The remaining solution was decanted, the inserts were placed on new wells containing 1.5 mL of pre-warm HBSS, and 0.5 mL of pre-warmed HBSS was added to each insert for TEER measurements. Some selected monolayers were prepared for microscopy; the remaining were incubated with culture media for re-use, as described below. […]

[1] = day 22, both sampling intervals (10 or 60 min)

LY Papp, µ best fit of Normal distribution to Papp (all days, all (88)): 1.9 10^-7 cm/s
LY Papp, µ directly from Papp (all days, all (88)): 2.1 10^-7 cm/s
LY Papp, µ best fit of Normal distribution to Papp (all days, re-use (41)): 1.6 10^-7 cm/s
LY Papp, µ directly from Papp (all days, re-use (41)): 1.8 10^-7 cm/s
LY QA, µ from Log(QA) (all days, single use & re-use, 1st 10 min (65)): 0.18%
LY QA, µ from Log(QA) (all days, single use & re-use, 1st 60 min (88)): 0.20%
LY QA, µ from Log(QA) (all days, single use & re-use, 2nd 10 min (66)): 0.21%
LY QA, µ from Log(QA) (all days, single use & re-use, 3rd 10 min (62)): 0.25%
LY QA, µ from Log(QA) (all days, single use & re-use, 4th 30 min (62)): 0.35%
LY QA, µ from Log(QA) (all days, single use & re-use, all 1st samplings (153)): 0.19%
LY QA, µ from Log(QA) (all days, single use & re-use, all samplings (346)): 0.23%
LY Papp, µ best fit of Normal distribution to Papp (all days, single use (47)): 2.1 10^-7 cm/s
LY Papp, µ directly from Papp (all days, single use (47)): 2.4 10^-7 cm/s
LY Papp, µ best fit of Normal distribution to Papp (day 22, all (35)): 2.0 10^-7 cm/s
LY Papp, µ directly from Papp (day 22, all (35)): 2.3 10^-7 cm/s
QA (%), µ, LY transported during first sampling interval (day 22, batch 1, passage 95, single use, one-time sampling (60 min)): 0.18%
QA (%), µ, LY transported during first sampling interval (day 22, batch 1, passage 98, single use, multi-time sampling (10 min)): 0.19%
QA (%), µ, LY transported during first sampling interval (day 22, batch 1, passage 100, single use, multi-time sampling (10 min)): 0.36%
QA (%), µ, LY transported during first sampling interval (day 22, batch 1, passage 104, single use, multi-time sampling (10 min)): 0.16%
QA (%), µ, LY transported during first sampling interval (day 22, batch 1, passage 105, single use, multi-time sampling (10 min)): 0.22%
QA (%), µ, LY transported during first sampling interval (day 22, batch 2, passage 95, single use, one-time sampling (60 min)): 0.27%
QA (%), µ, LY transported during first sampling interval (day 22, batch 2, passage 98, single use, one-time sampling (60 min)): 0.30%
QA (%), µ, LY transported during first sampling interval (day 22, batch 3, passage 95, single use, one-time sampling (60 min)): 0.19%
LogQA, centre of Normal distribution [1]: around −0.6
QA, amount of LY that reaches the acceptor compartment [1]: around 0.2%
LY QA, µ from Log(QA) (day 22, single use, 1st 10 min (27)): 0.25%
LY QA, µ from Log(QA) (day 22, single use, 1st 60 min (35)): 0.21%
LY QA, µ from Log(QA) (day 22, single use, 2nd 10 min (28)): 0.29%
LY QA, µ from Log(QA) (day 22, single use, 3rd 10 min (26)): 0.37%
LY QA, µ from Log(QA) (day 22, single use, 4th 30 min (28)): 0.48%
LY QA, µ from Log(QA) (day 22, single use, all 1st samplings (62)): 0.23%
LY QA, µ from Log(QA) (day 22, single use, all samplings (144)): 0.30%
LY Papp, µ best fit of Normal distribution to Papp (day 25, all (29)): 1.7 10^-7 cm/s
LY Papp, µ directly from Papp (day 25, all (29)): 1.9 10^-7 cm/s
QA (%), µ, LY transported during first sampling interval (day 25, batch 1, passage 95, re-use, one-time sampling (60 min)): 0.21%
QA (%), µ, LY transported during first sampling interval (day 25, batch 1, passage 95, single use, one-time sampling (60 min)): 0.13%
QA (%), µ, LY transported during first sampling interval (day 25, batch 1, passage 98, single use, multi-time sampling (10 min)): 0.10%
QA (%), µ, LY transported during first sampling interval (day 25, batch 1, passage 100, re-use, multi-time sampling (10 min)): 0.25%
QA (%), µ, LY transported during first sampling interval (day 25, batch 1, passage 104, single use, multi-time sampling (10 min)): 0.14%
QA (%), µ, LY transported during first sampling interval (day 25, batch 1, passage 105, re-use, multi-time sampling (10 min)): 0.20%
QA (%), µ, LY transported during first sampling interval (day 25, batch 2, passage 95, re-use, one-time sampling (60 min)): 0.16%
QA (%), µ, LY transported during first sampling interval (day 25, batch 2, passage 98, single use, one-time sampling (60 min)): 0.25%
QA (%), µ, LY transported during first sampling interval (day 25, batch 3, passage 95, re-use, one-time sampling (60 min)): 0.19%
LY Papp, µ best fit of Normal distribution to Papp (day 25, re-use (23)): 1.7 10^-7 cm/s
LY Papp, µ directly from Papp (day 25, re-use (23)): 1.9 10^-7 cm/s
LY QA, µ from Log(QA) (day 25, re-use, 1st 10 min (16)): 0.22%
LY QA, µ from Log(QA) (day 25, re-use, 1st 60 min (23)): 0.18%
LY QA, µ from Log(QA) (day 25, re-use, 2nd 10 min (16)): 0.28%
LY QA, µ from Log(QA) (day 25, re-use, 3rd 10 min (16)): 0.27%
LY QA, µ from Log(QA) (day 25, re-use, 4th 30 min (16)): 0.38%
LY QA, µ from Log(QA) (day 25, re-use, all 1st samplings (39)): 0.20%
LY QA, µ from Log(QA) (day 25, single use & re-use, 1st 10 min (22)): 0.19%
LY QA, µ from Log(QA) (day 25, single use & re-use, 1st 60 min (29)): 0.18%
LY QA, µ from Log(QA) (day 25, single use & re-use, 2nd 10 min (22)): 0.25%
LY QA, µ from Log(QA) (day 25, single use & re-use, 3rd 10 min (22)): 0.25%
LY QA, µ from Log(QA) (day 25, single use & re-use, 4th 30 min (22)): 0.36%
LY QA, µ from Log(QA) (day 25, single use & re-use, all 1st samplings (51)): 0.18%
LY QA, µ from Log(QA) (day 25, single use & re-use, all samplings (117)): 0.23%
LY Papp, µ directly from Papp (day 25, single use (6)): 2.1 10^-7 cm/s
LY QA, µ from Log(QA) (day 25, single use, 1st 10 min (6)): 0.12%
LY QA, µ from Log(QA) (day 25, single use, 1st 60 min (6)): 0.18%
LY QA, µ from Log(QA) (day 25, single use, 2nd 10 min (6)): 0.19%
LY QA, µ from Log(QA) (day 25, single use, 3rd 10 min (6)): 0.20%
LY QA, µ from Log(QA) (day 25, single use, 4th 30 min (6)): 0.31%
LY QA, µ from Log(QA) (day 25, single use, all 1st samplings (12)): 0.15%
LY Papp, µ best fit of Normal distribution to Papp (day 28, all (24)): 1.8 10^-7 cm/s
LY Papp, µ directly from Papp (day 28, all (24)): 2.2 10^-7 cm/s
QA (%), µ, LY transported during first sampling interval (day 28, batch 1, passage 95, re-use, one-time sampling (60 min)): 0.33%
QA (%), µ, LY transported during first sampling interval (day 28, batch 1, passage 95, single use, one-time sampling (60 min)): 0.39%
QA (%), µ, LY transported during first sampling interval (day 28, batch 1, passage 98, single use, multi-time sampling (10 min)): 0.09%
QA (%), µ, LY transported during first sampling interval (day 28, batch 1, passage 100, re-use, multi-time sampling (10 min)): 0.09%
QA (%), µ, LY transported during first sampling interval (day 28, batch 1, passage 104, single use, multi-time sampling (10 min)): 0.23%
QA (%), µ, LY transported during first sampling interval (day 28, batch 1, passage 105, re-use, multi-time sampling (10 min)): 0.06%
QA (%), µ, LY transported during first sampling interval (day 28, batch 2, passage 95, re-use, one-time sampling (60 min)): 0.11%
QA (%), µ, LY transported during first sampling interval (day 28, batch 2, passage 98, single use, one-time sampling (60 min)): 0.26%
QA (%), µ, LY transported during first sampling interval (day 28, batch 3, passage 95, re-use, one-time sampling (60 min)): 0.17%
LY Papp, µ best fit of Normal distribution to Papp (day 28, re-use (18)): 1.4 10^-7 cm/s
LY Papp, µ directly from Papp (day 28, re-use (18)): 1.8 10^-7 cm/s
LY QA, µ from Log(QA) (day 28, re-use, 1st 10 min (10)): 0.07%
LY QA, µ from Log(QA) (day 28, re-use, 1st 60 min (18)): 0.16%
LY QA, µ from Log(QA) (day 28, re-use, 2nd 10 min (10)): 0.08%
LY QA, µ from Log(QA) (day 28, re-use, 3rd 10 min (8)): 0.11%
LY QA, µ from Log(QA) (day 28, re-use, 4th 30 min (10)): 0.19%
LY QA, µ from Log(QA) (day 28, re-use, all 1st samplings (28)): 0.12%
LY QA, µ from Log(QA) (day 28, single use & re-use, 1st 10 min (16)): 0.09%
LY QA, µ from Log(QA) (day 28, single use & re-use, 1st 60 min (24)): 0.19%
LY QA, µ from Log(QA) (day 28, single use & re-use, 2nd 10 min (16)): 0.10%
LY QA, µ from Log(QA) (day 28, single use & re-use, 3rd 10 min (14)): 0.13%
LY QA, µ from Log(QA) (day 28, single use & re-use, 4th 30 min (16)): 0.20%
LY QA, µ from Log(QA) (day 28, single use & re-use, all 1st samplings (40)): 0.14%
LY QA, µ from Log(QA) (day 28, single use & re-use, all samplings (86)): 0.14%
LY Papp, µ directly from Papp (day 28, single use (6)): 3.3 10^-7 cm/s
LY QA, µ from Log(QA) (day 28, single use, 1st 10 min (6)): 0.15%
LY QA, µ from Log(QA) (day 28, single use, 1st 60 min (6)): 0.32%
LY QA, µ from Log(QA) (day 28, single use, 2nd 10 min (6)): 0.14%
LY QA, µ from Log(QA) (day 28, single use, 3rd 10 min (6)): 0.15%
LY QA, µ from Log(QA) (day 28, single use, 4th 30 min (6)): 0.24%
LY QA, µ from Log(QA) (day 28, single use, all 1st samplings (12)): 0.22%
Substance: Lucifer yellow CH di-potassium salt [LY]
